The values below come from the supplement of paper PMC10331698.

Holding throughout (test): level (log10 ratio to DMSO vehicle control); higher = higher biomarker level / cell amount than vehicle control
Compound in assay [1]: C=C(C)C(=O)OCC(F)(F)C(F)(F)C(F)(F)F [2,2,3,3,4,4,4-Heptafluorobutyl methacrylate]
Particulars: in DMSO. As to the method:
(§1)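 BioMAP Diversity Plus panel of 12 human primary cell co-culture systems (3C, 4H, LPS, SAg, BT, BF4T, BE3C, CASM3C, HDF3CGF, KF3CT, MyoF, Mphg). Compounds were added 1 h before stimulation and left for 24 h (MyoF 48 h; BT 72 h for soluble read-outs or 6 d for IgG). Biomarkers were read by ELISA, cytotoxicity by SRB, PBMC viability and proliferation by Alamar Blue. Each well value was divided by the mean of 8 DMSO control wells on the same plate and log10 transformed; duplicate blinded samples were tested at 4 concentrations.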

Compound in assay [2]: C=CC(=O)OCC(F)(F)C(F)(F)C(F)(F)C(F)(F)COC(=O)C=C [1H,1H,6H,6H-Perfluorohexane-1,6-diol diacrylate]
Particulars: 6700 nM; in DMSO. As to the method: as §1

Compound in assay [3]: Cc1ccc(S(=O)(=O)OCC(F)(F)C(F)(F)C(F)(F)C(F)(F)C(F)(F)C(F)F)cc1 [1H,1H,7H-Perfluoroheptyl 4-methylbenzenesulfonate]
Particulars: in DMSO. Here is the method:
as §1

Compound in another assay: O=C(O)C(F)(F)C(F)(F)C(F)(F)C(F)(F)C(F)(F)C(F)(F)C(F)(F)F [Perfluorooctanoic acid]
To be noted: in DMSO. As to the method:
as §1

Compound in assay [4]: O=S(=O)(OCC(F)(F)F)C(F)(F)C(F)(F)C(F)(F)C(F)(F)F [2,2,2-Trifluoroethyl perfluorobutanesulfonate]
Particulars: in DMSO. Here is the method: as §1

Compound in the next assay: OC(C(F)(F)F)(C(F)(F)F)C(O)(C(F)(F)F)C(F)(F)F [Perfluoropinacol]
Particulars: in DMSO. Here is the method: as §1

Compound in assay [5]: OCC(F)(F)C(F)(F)C(F)(F)C(F)(F)C(F)(F)C(F)(F)C(F)(F)C(F)(F)CO [1H,1H,10H,10H-Perfluorodecane-1,10-diol]
To be noted: in DMSO. Here is the method: as §1

Compound in assay [6]: OCCC(F)(F)C(F)(F)C(F)(F)C(F)(F)C(F)(F)C(F)(F)C(F)(F)C(F)(F)F [8:2 Fluorotelomer alcohol]
Particulars: 6700 nM; in DMSO. Here is the method:
as §1

± gives the standard deviation of the averaged measurements.

Turning to BF4T:CXCL8/IL-8, the “level (log10)” value is 0.044 ± 0.047 in assay [1] (6700 nM); 0.0155 ± 0.073 in assay [1] (20000 nM); 0.037 ± 0.037 in assay [1] (60000 nM); -0.0265 ± 0.013 in assay [2]; -0.0195 ± 0.012 in assay [3] (6700 nM); -0.0615 ± 0.012 in assay [3] (20000 nM). For the same test system, the “level (log10)” value is -0.0515 ± 0.011 in assay [3] (60000 nM); -0.0035 ± 0.013 with Perfluorooctanoic acid (6700 nM); -0.0085 ± 0.0035 with Perfluorooctanoic acid (20000 nM); -0.0025 ± 0.016 in the assay with Perfluorooctanoic acid (60000 nM); 0.0295 ± 0.0064 in assay [4] (6700 nM); 0.017 in assay [4] (20000 nM). Moreover, the “level (log10)” value in assay [4] (60000 nM) turned out to be 0.0385 ± 0.044; in the assay with Perfluoropinacol (6700 nM) it was 0.081 ± 0.024; with Perfluoropinacol (20000 nM), 0.0865 ± 0.032; in assay [5] (6700 nM), 0.0005 ± 0.0064; in assay [5] (20000 nM) it was 0.0095 ± 0.00071; in assay [5] (60000 nM), 0.004. For the same test system, in assay [6], the “level (log10)” value is -0.0095 ± 0.0092.
Turning to SAg:CD62E/E-Selectin, the “level (log10)” value in assay [1] (6700 nM) was 0.0045 ± 0.039; in assay [1] (20000 nM) it was -0.0225 ± 0.011; in assay [1] (60000 nM), 0.0015 ± 0.019; in assay [2], -0.15 ± 0.021; in assay [3] (6700 nM) it was 0.021 ± 0.0028; in assay [3] (20000 nM), 0.007 ± 0.018. Moreover, the “level (log10)” value in assay [3] (60000 nM) is -0.0115 ± 0.028; in the assay with Perfluorooctanoic acid (6700 nM), 0.009 ± 0.0057; with Perfluorooctanoic acid (20000 nM), 0.015 ± 0.0085; with Perfluorooctanoic acid (60000 nM) it was 0.086 ± 0.0014; in assay [4] (6700 nM), -0.0065 ± 0.015; in assay [4] (20000 nM) it was 0.006 ± 0.018. The “level (log10)” value was 0.03 ± 0.013 in assay [4] (60000 nM); 0.008 ± 0.0071 with Perfluoropinacol (6700 nM); -0.15 ± 0.0021 with Perfluoropinacol (20000 nM); -0.0215 ± 0.005 in assay [5] (6700 nM); -0.015 ± 0.0099 in assay [5] (20000 nM); -0.015 in assay [5] (60000 nM). Also, the “level (log10)” value in assay [6] was -0.012.
In the case of BT:sIL-6, the “level (log10)” value in assay [1] (6700 nM) is 0.035 ± 0.0085; in assay [1] (20000 nM) it was -0.0015 ± 0.028; in assay [1] (60000 nM) it was -0.015 ± 0.041; in assay [2], -0.546 ± 0.044; in assay [3] (6700 nM) it was 0.0155 ± 0.011; in assay [3] (20000 nM), -0.0245 ± 0.069. Further, the “level (log10)” value in assay [3] (60000 nM) was -0.0975 ± 0.021; in the assay with Perfluorooctanoic acid (6700 nM), 0.024 ± 0.03; with Perfluorooctanoic acid (20000 nM), -0.0095 ± 0.035; in the assay with Perfluorooctanoic acid (60000 nM), 0.0025 ± 0.0078; in assay [4] (6700 nM), 0.089 ± 0.0085; in assay [4] (20000 nM) it was 0.158 ± 0.02. In addition, the “level (log10)” value was 0.231 ± 0.033 in assay [4] (60000 nM); -0.073 ± 0.051 in the assay with Perfluoropinacol (6700 nM); -0.0655 ± 0.019 with Perfluoropinacol (20000 nM); -0.0075 ± 0.011 in assay [5] (6700 nM); -0.0405 ± 0.032 in assay [5] (20000 nM); -0.673 in assay [5] (60000 nM). Further, the “level (log10)” value in assay [6] came to 0.0665 ± 0.013.
